Measurements from patent US7132546B2, “Aniline derivatives or salts thereof and cytokine production inhibitors containing the same” (Ishihara Sangyo Kaisha, Ltd., priority 2000, dated 2006).

What was measured:
[1] = tested on: interleukin 5 (IL-5) production; experiment: Cytokine production inhibitory effect: IL-5 production by murine spleen cells treated with anti-mouse CD3 antibody and IL-2 (ELISA); format: cell-based, Balb/c mice; settings: test compound 100 ppm, anti-CD3 antibody + IL-2, 40 to 48 hours, read-out: IL-5 production inhibitory ratio (%)
Method: (§1) Murine spleen cells were treated with anti-mouse CD3 antibody and IL-2 to induce cytokine production. The test compounds were added to the cytokine production system to evaluate their inhibitory effect. Namely, anti-mouse CD3 antibody adjusted to from 10 to 20 μg/ml with borate buffered physiological saline (pH 8.5) was pipetted into a 96-well cell culture plate in an amount of 50 μl/well and left to stand at 4° C. for 18 hours. The unreacted solution was removed, washing with Hank's buffer solution was carried out once, and IL-2 adjusted to 10 ng/ml with a RPMI liquid containing 10% fetal bovine serum (FCS) was pipetted in an amount of 50 μl/well. For the negative control group, a solution alone without anti-CD3 antibody nor IL-2 was applied. Then, the diluted solution of each of the test compounds (concentration: 100 ppm unless otherwise specified) was pipetted in an amount of 50 μl/well, and a cell suspension of 1×10^7 cells/ml, prepared from spleen of Balb/c mice (female, 7 to 10 week old) was pipetted thereinto in an amount of 100 μl/well. After cultivation in an incubator (37° C., 5% carbon dioxide gas) for from 40 to 48 hours, the culture supernatant was recovered to measure the cytokine production amount by ELISA method.
(§2) With respect to interleukin 5 (IL-5) as a typical Th2 type cytokine and interferon γ (IFN-γ) as a typical Th1 type cytokine, measurements were carried out by the following methods, respectively. Namely, quantitative determination of IL-5 was carried out by the following ELISA method. First, rat anti-mouse IL-5 antibody (Endogen Code No. MM-550C) as a primary antibody was diluted with carbonate buffer solution (pH 9.5) to 1 μg/ml, and spread in a 96 well plate (IWAKI, Code No. 3860-096) in an amount of 50 μl/well for coating at 4° C. overnight (16 to 24 hours). Then, the plate was subjected to blocking at 37° C. for 2 hours by phosphate buffered physiological saline containing 10% FCS (pH 7.2) (blocking buffer solution) (250 μl/well). The plate was washed with PBS (washing buffer) containing 0.05% Tween 20 (Nacalai Tesque, Code No. 281-51) four times, and a diluted liquid of the culture supernatant was spread in an amount of 50 μl/well, followed by incubation at room temperature for 1 hour. For preparation of a standard line, recombinant mouse IL-5 (R&D systems, Code No. 405-ML) was employed. The plate was washed with a washing buffer four times, and biotin-labeled rat anti-mouse IL-5 antibody (Pharmingen, Code No. 18062D) as a secondary antibody diluted to 0.5 μg/ml with a blocking buffer containing 0.05% Tween 20 was added thereto (50 μl/well), followed by incubation at room temperature for 1 hour. The plate was washed with a washing buffer four times, strept avidin-labeled peroxidase (ProZyme, Code No. CJ30H001) diluted 800 times with a blocking buffer containing 0.05% Tween 20 was added thereto (50 μl/well), followed by reaction at room temperature for 15 minutes. The plate was washed with a washing buffer four times, and a […] substrate solution (SIGMA, Code No. T-8665) was added thereto in an amount of 100 μl/well for color developing for from 10 to 20 minutes. A 1M sulfuric acid solution was added thereto in an amount of 100 μl/well to terminate the reaction, and absorption (wavelength 450 nm) was measured by means of micro plate reader (SPECTRA max, Wako Pure Chemicals Industries, Ltd.). Quantitative determination of IFN-γ was carried out in the same manner as the measurement of IL-5, employing rat anti-mouse IFN-γ antibody (Pharmingen, Code No. 18181D) and biotin labeled rat anti-mouse IFN-γ antibody (Pharmingen, Code NO. 18112D), as a primary antibody and a secondary antibody, respectively. For preparation of a standard line, recombinant mouse IFN-γ (GENZYME, Code No. 3485) was employed. The experiment was carried out in duplicate, and the average of the cytokine production amount was obtained. […]

[2] = tested on: interferon γ (IFN-γ) production; experiment: Cytokine production inhibitory effect: IFN-γ production by murine spleen cells treated with anti-mouse CD3 antibody and IL-2 (ELISA); format: cell-based, Balb/c mice; settings: test compound 100 ppm, anti-CD3 antibody + IL-2, 40 to 48 hours, read-out: IFN-γ production inhibitory ratio (%)
Method: as §1, §2

melting point [°C] | SMILES | inhibition at 100 ppm [1] [%] | inhibition at 100 ppm [2] [%]
256 | Cc1cc(C23CC4CC(CC(C4)C2)C3)ccc1NC(=O)c1cccc(Cl)c1[N+](=O)[O-] [compound 58] | 97 | 96
174 | O=C(Nc1ccc(Sc2ncc(C(F)(F)F)cc2Cl)cc1)c1cc([N+](=O)[O-])ccc1Cl [compound 59] | 100 | 100
222 | Cc1cc(C23CC4CC(CC(C4)C2)C3)ccc1NC(=O)c1cccc([N+](=O)[O-])c1Cl [compound 60] | 96 | 93
198 | Cc1cc(C23CC4CC(CC(C4)C2)C3)ccc1NC(=O)c1ccccc1 [compound 61] | 79 | 89
111 | Cc1cc(C23CC4CC(CC(C4)C2)C3)ccc1NC(=O)c1ccc(Cl)c([N+](=O)[O-])c1 [compound 62] | 100 | 100
198 | O=C(Nc1ccc(Oc2ccccn2)cc1)c1cc([N+](=O)[O-])ccc1Cl [compound 63] | 100 | 100
203 | O=C(Nc1ccc(Oc2ncc(C(F)(F)F)cc2Cl)cc1)c1cc([N+](=O)[O-])ccc1Cl [compound 64] | 98 | 99
195 | O=C(Nc1ccc(N2CCOCC2)cc1)c1cc([N+](=O)[O-])ccc1Cl [compound 66] | 95 | 91
187 | O=C(Nc1ccc(/N=N/c2ccccc2)cc1)c1cc([N+](=O)[O-])ccc1Cl [compound 67] | 99 | 100
65 | CSc1ccc(Cl)c(C(=O)Nc2ccc(C34CC5CC(CC(C5)C3)C4)cc2C)c1 [compound 68] | 92 | 99
180 to 183 | O=C(Nc1ccc(Sc2ccccc2)cc1)c1cc([N+](=O)[O-])ccc1Cl [compound 69] | 100 | 100
69 | Cc1cc(C23CC4CC(CC(C4)C2)C3)ccc1NC(=O)c1cc(C(F)(F)F)ccc1Cl [compound 70] | 98 | 99
181 to 183 | Cc1ccc(NC(=O)c2ccc([N+](=O)[O-])cc2Cl)c(C)c1 [compound 73] | 64 | 28
289 to 290 | Cc1cc(C23CC4CC(CC(C4)C2)C3)ccc1NC(=O)c1ccc([N+](=O)[O-])cc1 [compound 74] | 43 | 10
96 to 100 | Cc1cc(C23CC4CC(CC(C4)C2)C3)ccc1NC(=O)c1cc(S(C)(=O)=O)ccc1Cl [compound 75] | 100 | 100
184 to 187 | Cc1cc(C23CC4CC(CC(C4)C2)C3)ccc1NC(=O)c1cc(C#N)ccc1Cl [compound 76] | 96 | 96
176 to 178 | O=C(Nc1ccc(OCc2ccccc2)cc1)c1cc([N+](=O)[O-])ccc1Cl [compound 77] | 74 | 50
156 to 157 | O=C(Nc1ccc(SCc2ccccc2)cc1)c1cc([N+](=O)[O-])ccc1Cl [compound 78] | 78 | 91

melting point [°C] | SMILES | inhibition at 100 ppm [1] [%] | inhibition at 100 ppm [2] [%]
176 to 180 | O=C(Nc1ccc(CSc2ccccc2)cc1)c1cc([N+](=O)[O-])ccc1Cl [compound 79] | 62 | 90
171 | O=[N+]([O-])c1ccc(Cl)c(S(=O)(=O)Nc2ccc(Oc3ncc(C(F)(F)F)cc3Cl)cc2)c1 [compound 80] | 100 | 100
207 to 208 | O=C(Nc1ccc(CSc2ncc(C(F)(F)F)cc2Cl)cc1)c1cc([N+](=O)[O-])ccc1Cl [compound 82] | 90 | 99
203 to 206 | O=C(Nc1ccc(-c2ccccc2)cc1)c1cc([N+](=O)[O-])ccc1Cl [compound 83] | 90 | 76
143 | N#Cc1ccc(Cl)c(C(=O)Nc2ccc(Oc3ccccc3)cc2)c1 [compound 85] | 91 | 86
209 to 212 | N#Cc1ccc(Cl)c(C(=O)Nc2ccc(Oc3ncc(C(F)(F)F)cc3Cl)cc2)c1 [compound 86] | 87 | 29
229 to 231 | N#Cc1ccc(Cl)c(C(=O)Nc2ccc(Sc3ncc(C(F)(F)F)cc3Cl)cc2)c1 [compound 87] | 100 | 100
221 | CS(=O)(=O)c1ccc(Cl)c(C(=O)Nc2ccc(Oc3ncc(C(F)(F)F)cc3Cl)cc2)c1 [compound 88] | 72 | 17
168 | O=C(Nc1ccc(Oc2ccc(C(F)(F)F)cc2Cl)cc1)c1cc([N+](=O)[O-])ccc1Cl [compound 89] | 87 | 99
224 to 226 | O=[N+]([O-])c1ccc(Cl)c(S(=O)(=O)Nc2ccc(Sc3ncc(C(F)(F)F)cc3Cl)cc2)c1 [compound 90] | 100 | 100
219 to 221 | Cc1cc(Oc2ncc(C(F)(F)F)cc2Cl)ccc1NC(=O)c1cc([N+](=O)[O-])ccc1Cl [compound 91] | 53 | 1
201 to 204 | O=C(Nc1ccc(CO)cc1)c1cc([N+](=O)[O-])ccc1Cl [compound 92] | 99 | 100
224 to 228 | O=C(Nc1ccc(C23CC4CC(CC(C4)C2)C3)cc1)c1cc([N+](=O)[O-])ccc1F [compound 93] | 100 | 100
273 to 275 | O=C(Nc1ccc(C23CC4CC(CC(C4)C2)C3)cc1)c1cc([N+](=O)[O-])ccc1Br [compound 94] | 85 | 53
167 to 172 | O=C(Nc1ccc(Oc2ccc(C(F)(F)F)cc2Cl)cc1)c1cc([N+](=O)[O-])ccc1Br [compound 96] | 100 | 100
131 to 134 | O=C(Nc1ccc(CCOc2ncc(C(F)(F)F)cc2Cl)cc1)c1cc([N+](=O)[O-])ccc1Cl [compound 97] | 77 | 84
168 to 170 | O=C(Nc1ccc(Oc2ncc(C(F)(F)F)cc2Cl)cc1)c1cc([N+](=O)[O-])ccc1F [compound 98] | 96 | 99
